This note sets out measurements from patent publication US8269007B2, “Crystalline form II of 7-(dimethoxy-methyl) camptothecin, its use as intermediate and products obtained therefrom” (Sigma-Tau Industrie Farmaceutiche Riunite SpA, priority 2007, dated 2012).

Structures are written as SMILES.

The series can be described thus: Thermal behaviour (TGA melting range apparatus Mettler TG 50, confirmed by DSC Mettler DSC 30). As to conditions: for decomposition temperature: heat ramp 20° C./min (TGA/DSC). (In general: DSC measures the heat that a sample takes up or gives off during a temperature scan.)

`CC[C@@]1(O)C(=O)OCc2c1cc1n(c2=O)Cc2c-1nc1ccccc1c2C(OC)OC` [Form II, (4S)-11-(dimethoxymethyl)-4-ethyl-4-hydroxy-1H-pyrano[3′,4′:6,7]indolizino[1,2-b]quinoline-3,14(4H,12H)-dione] came in with a decomposition temperature of 173.56 °C.

For the compound `CC[C@@]1(O)C(=O)OCc2c1cc1n(c2=O)Cc2c-1nc1ccccc1c2C(OC)OC` [Form I, 7-(dimethoxy-methyl)camptothecin], the “thermal stability of one crystal form compared with the other” value (FT-IR, powder x-ray and TGA / DSC-TGA comparison of Form I and Form II) is reported as “less stable”. Besides, the decomposition temperature by setting is: (listed as 7-(dimethoxy-methyl)camptothecin form I) 123.38 °C; (listed as form I) 123.38 °C.
